Experimental data taken from patent US20200316122A1, “METHODS OF PRODUCING T CELL POPULATIONS USING P38 MAPK INHIBITORS” (The United States of America,as represented by the …, priority 2017, published 2020).

Assays:
[1] = test system: Mouse T cells; test: cytokine production after brief anti-CD3/anti-CD28 stimulation; assay type: cell-based; details: 10 days, 0.5 μM
Procedure: Mouse T cells were stimulated and expanded for 10 days in vitro in the presence of 0.5 μM p38 inhibitor. Cells were briefly stimulated with anti-CD3/anti-CD28 in the presence of GOLGI-STOP protein transport inhibitor and GOLGI-PLUG protein transport inhibitor to determine the cytokine production ability of cells. As shown in FIGS. 10A-10C, IFN-gamma and IL-2 production increased following […] treatment. TNF alpha production decreased following […] treatment.

[2] = test system: Mouse T cells; test: metabolome analysis; assay type: cell-based; details: 5 days, 0.5 μM, vs vehicle
Procedure: Mouse T cells were stimulated and the numbers of cells were expanded for 5 days in vitro in the presence of 0.5 μM p38 inhibitor. […] FIG. 7B is a schematic illustrating glycolysis and the citric acid cycle.

[3] = test system: Mouse T cells; test: SEAHORSE analysis of respiratory capacity; assay type: cell-based; details: 5 days, 0.5 μM
Procedure: Mouse T cells were stimulated and expanded for 5 days in vitro in the presence of 0.5 μM p38 inhibitor. SEAHORSE analysis was performed to determine spare respiratory capacity of cells.

[4] = test system: CD19 antigen expressing NALM6 cells; test: specific cytolysis by anti-CD19 CAR human T cells expanded with p38i; assay type: cell-based; details: anti-CD19 CAR T cells from 2 healthy donors, expanded 20-25 days, overnight coculture with NALM6
Procedure: Human T cells from 2 healthy donors were transduced with a retrovirus encoding an anti-CD19 CAR and the numbers of cells were expanded for 20-25 days in the presence of […]. Specific cytolysis was measured. […] T cells and NALM6 cells were cocultured overnight.

[5] = test system: human healthy donor derived T cells and melanoma patient-derived T cells; test: human T cells expanded 20-25 days with p38i: CD8+CD62L+ cells; assay type: cell-based; details: 0.5 uM p38i, vs vehicle
Procedure: The numbers of human healthy donor derived T cells and melanoma patient-derived T cells were expanded for 20-25 days in presence of 0.5 uM […]. The percentage of CD8+CD62L+ cells was measured.

[6] = test system: Mouse T cells; test: apoptosis during expansion by Annexin; assay type: cell-based; details: 4 days, 0.5 μM
Procedure: Mouse T cells were stimulated and the numbers of cells were expanded for 4 days in vitro in the presence of 0.5 μM p38 inhibitor. The levels of cells which underwent apoptosis were measured.

[7] = test system: Subcutaneous tumor; test: adoptive cell transfer of Pmel-1 T cells expanded ex vivo with p38 inhibitor into tumor-bearing mice; assay type: in vivo; details: mice receiving Pmel-1 T cells expanded ex vivo 10 days with p38 inhibitor
Procedure: Subcutaneous tumor growth was measured in mice receiving adoptive cell transfer of Pmel-1 T cells which were expanded ex vivo for 10 days in the presence of p38 inhibitor. Tumor area (FIG. 10G) and overall survival (FIG. 10H) are shown. Significance for tumor growth kinetics were calculated by Wilcoxon rank-sum test. Survival significance was assessed by a log-rank Mantel-Cox test (n=5 mice per treatment group).

[8] = test system: Mouse T cells; test: cell proliferation by dilution of CSFE proliferation dye; assay type: cell-based; details: hgp100 peptide or anti-CD3/CD28 stimulation, 4 days, 0.5 μM
Procedure: Mouse T cells were stimulated using either hgp100 peptide or anti-CD3/CD28 antibodies, and the numbers of cells were expanded for 4 days in vitro in the presence of 0.5 μM p38 inhibitor. Cell proliferation was measured.

[9] = test system: Mouse T cells; test: RNA extraction and qPCR gene expression; assay type: cell-based; details: 5 days, 0.5 μM, qPCR
Procedure: Mouse T cells were stimulated and expanded for 5 days in vitro in the presence of 0.5 μM p38 inhibitor. RNA extraction and qPCR analysis were performed to determine differences in gene expression.

[10] = test system: Mouse T cells; test: cellular and mitochondrial ROS by FACS; assay type: cell-based; details: 10 days, 0.5 μM
Procedure: Mouse T cells were stimulated and expanded for 10 days in vitro in the presence of 0.5 μM p38 inhibitor. Cellular and mitochondrial ROS levels were measured using FACS analysis.

[11] = test system: Mouse T cells; test: mouse T cells stimulated and expanded 5 days with Birb796: gamma H2AX, cell counts, CD44/CD62L; assay type: cell-based; details: mouse T cells expanded 5 days in vitro; with increases in the dosage of p38i
Procedure: Mouse T cells were stimulated and the numbers of cells were expanded for 5 days in vitro in the presence of the p38 inhibitor Birb796. The percentages of cells with high levels of gamma H2AX, the percentages of cell counts, and the expression of CD44 and CD62L were measured. As shown in FIGS. 4C-4F, with increases in the dosage of p38 inhibitor […]), the DNA damage in cells was reduced and the cell counts and percentage of CD62L+ cells were increased.

[12] = test system: Mouse T cells; test: intracellular staining and FACS of phosphorylation of Akt and its substrates; assay type: cell-based; details: 5 days, 0.5 μM
Procedure: Mouse T cells were stimulated and the numbers of cells were expanded for 5 days in vitro in presence of 0.5 μM p38 inhibitor. Intracellular staining and FACS analysis was performed to measure phosphorylation of Akt and its substrates in T cells.

[13] = test system: Human T cells; test: IFN-gamma production by human T cells expanded with p38i; assay type: cell-based; details: human T cells expanded 20-25 days
Description: Human T cells were expanded for 20-25 days in the presence of […].

In the case of `Cc1ccc(-n2nc(C(C)(C)C)cc2NC(=O)Nc2ccc(OCCN3CCOCC3)c3ccccc23)cc1` [BIRB 796, doramapimod], the IFN-gamma production [1] is reported as “increased”, the IL-2 production [1] is reported as “increased” and the TNF alpha production [1] is reported as “decreased”. For the same molecule, the alpha-ketoglutarate production [2] was “reduced”, the glucose production [2] was “reduced” and the lactate production [2] was “reduced”. For the same molecule, the “production of 9-HODE/13-HODE” value [2] was “reduced”, the “production of linoleate (18:2n6)” value [2] was “reduced” and the “production of oxidized GSSG” value [2] was “reduced”. The succinate production [2] was “reduced”, the total oxygen consumption [3] was “increased” and the specific cytolysis [4] was “lysed in higher numbers”. The “percentage of CD8+CD62L+ cells” value ([5]; healthy donor T cells) was “increased”, the “percentage of CD8+CD62L+ cells” value ([5]; melanoma patient T cells) was “increased” and the “cell death during expansion (apoptotic cell marker Annexin)” value [6] was “reduced cell death”. For the same molecule, the overall survival [7] was “promote survival”, the tumor area [7] was “enhanced the ability of the transferred cells to reduce tumor area” and the “cell proliferation (dilution of CSFE proliferation dye)” value [8] was “did not affect cell proliferation”. The “mRNA expression of Slc2a1” value [9] was “reduced”, the “mRNA expression of catalase” value [9] was “reduced” and the “mitochondrial ROS” value [10] was “reduced”. For the same molecule, the “total ROS” value [10] was “reduced”, the “DNA damage in cells (percentage of cells with high levels of gamma H2AX)” value [11] was “reduced” and the cell counts [11] was “increased”. For the same molecule, the “percentage of CD62L+ cells” value [11] was “increased”, the “phosphorylation of Akt and its substrates” value [12] was “preserved memory-like characteristics of T cells independent of the Akt pathway” and the “ability to produce the effector cytokine IFN-gamma” value [13] was “enhanced ability”.
